Laboratory results: US9439975B2, “Small efficient cell penetrating peptides derived from the scorpion toxin maurocalcine” (Commissariat A L'Energie Atomique Et Aux Energies …, priority 2011, dated 2016)
“Also recorded” adds a separate entry of the source. Square brackets hold non-standard residues; d marks the D form. Primed or numbered codes have the meaning given here. Ends that are not written are not given here. Cy5″ = Cy5 dye, coupled as maleimide to the C-terminal Cys; Abu = CC[C@H](N)C(=O)O; Cy5 = Cy5 label

Legend:
F98 rat glioma cell line = test: Flow cytometry of dose-dependent cell penetration in F98 cells; type: cell-based; conditions: Cy5-labeled peptides
Description: (§1) Chinese hamster ovary (CHO) and F98 rat glioma cell lines (from ATCC) were maintained at 37° C. in 5% CO2 in F-12K nutrient medium (INVITROGEN) supplemented with 10% (v/v) heat-inactivated fetal bovine serum (INVITROGEN) and 10,000 units/ml streptomycine and penicillin (INVITROGEN) for the CHO cells, and 2% heat-inactivated fetal bovine serum and 100 units/ml streptomycine and penicillin for the F98 cells
(§2) CHO and F98 cells were incubated with various concentrations of Cy5-labeled peptides in F-12K culture medium without serum at 37° C. for 2 hrs. The cells were then washed with PBS to remove excess extracellular peptide and treated with 1 mg/ml trypsin (INVITROGEN) for 5 min at 37° C. to detach cells from the surface, and centrifuged at 200 g before suspension in PBS. For experiments with the macropinocytosis inhibitor, amiloride, CHO cells were initially washed with F-12K and preincubated for 30 min at 37° C. with 1 mM amiloride (SIGMA). The cells were then incubated for 2 hrs at 37° C. with 1 μM of the Cy5-MCa analogues. For all these experimental conditions, flow cytometry analyses were performed with live cells using a Becton Dickinson flow cytometer LSR II or an Accuri® flow cytometer (BD BIOSCIENCES). Data were obtained and analyzed using FCS express software (DE NOVO) or Accuri® proprietary software CFlow sampler. Live cells were gated by forward/side scattering from a total of 10,000 events.
(§3) Cy5-labeled peptides derived from MCaUF1-9 were synthesized and assayed by confocal microscopy or flow cytometry as described in example 1.

F98 cell line = test: Confocal microscopy of peptide penetration in F98 cell line, comparison with Tat; type: cell-based, rat
Description: (§4) For analysis of the subcellular localization of MCa-Cy5 analogues in living cells, cell cultures were incubated with the fluorescent peptides for 2 hrs, and then washed with phosphate-buffered saline (PBS) alone. The plasma membrane was stained with 5 μg/ml rhodamine-conjugated concanavalin A (MOLECULAR PROBES) for 5 min. Cells were washed once more. Live cells were then immediately analyzed by confocal laser scanning microscopy using a Leica TCS-SPE operating system. Rhodamine (580 nm) and Cy5 (670 nm) were sequentially excited and emission fluorescence were collected in z-confocal planes of […] steps.
as §3

CHO cells [1] = test: Flow cytometry of cell penetration of Cy5-labeled peptides in CHO cells; type: cell-based, Chinese hamster; conditions: for dose-dependent cell penetration: concentrations up to 33 μM; for cell penetration (fluorescence accumulation within cells): 2 hrs incubation, 3 μM peptide, trypsin treatment
Description: Each peptide was labeled with Cy5 according to the manufacturer's protocol (GE HEALTHCARE). Peptides were dissolved at 1 mg/ml in 0.1 M Na2CO3 buffer, pH 9.3. 300 μl of the solubilized peptides were added to Cy5-maleimide containing tubes. The mixtures were incubated during 2 hrs at room temperature and then purified by HPLC using an analytical Vydac C18 column. Elution of the Cy5-labeled peptides was performed with a 10-60% acetonitrile linear gradient containing 0.1% trifluoroacetic acid. The pure peak fractions were lyophilized and peptides quantified by UV spectrophotometer at 649 nm.
as §1, §2

CHO cells [2] = test: Confocal microscopy of subcellular localization of Cy5-labeled peptides in living CHO cells (rhodamine-concanavalin A membrane stain); type: cell-based, Chinese hamster; conditions: 2 hrs; for Cy5-positive pixels rhodamine-positive (colocalization with the plasma membrane indicator): FIG. 3; for Rhodamine-positive staining also Cy5-positive (pixels): Cy5/rhodamine colocalization
Description: as §4

CHO cells [3] = test: Amiloride sensitivity of peptide cell entry (macropinocytosis inhibition), flow cytometry; type: cell-based, Chinese hamster; conditions: for inhibition of cell penetration by amiloride: 2 hrs, peptide with or without 5 mM amiloride (FIG. 4A); for amiloride-sensitivity of cell penetration: Cy5 as cargo, flow cytometry (FIG. 4)
Description: as §2, with “For experiments with the macropinocytosis inhibitor, amiloride, CHO cells were initially washed with F-12K and preincubated for 30 min at 37° C. with 1 mM amiloride (SIGMA). The cells were then incubated for 2 hrs at 37° C. with 1 μM of the Cy5-MCa analogues.” left out

cells = conditions: streptavidine as cargo, earlier studies; cited from earlier work
[4] = target: ryanodine receptor type 1 (RyR1) (Oryctolagus cuniculus, UniProt P11716); conditions: earlier reports; cited from earlier work
ryanodine receptor type 1 (RyR1), sequence (P11716 whole entry): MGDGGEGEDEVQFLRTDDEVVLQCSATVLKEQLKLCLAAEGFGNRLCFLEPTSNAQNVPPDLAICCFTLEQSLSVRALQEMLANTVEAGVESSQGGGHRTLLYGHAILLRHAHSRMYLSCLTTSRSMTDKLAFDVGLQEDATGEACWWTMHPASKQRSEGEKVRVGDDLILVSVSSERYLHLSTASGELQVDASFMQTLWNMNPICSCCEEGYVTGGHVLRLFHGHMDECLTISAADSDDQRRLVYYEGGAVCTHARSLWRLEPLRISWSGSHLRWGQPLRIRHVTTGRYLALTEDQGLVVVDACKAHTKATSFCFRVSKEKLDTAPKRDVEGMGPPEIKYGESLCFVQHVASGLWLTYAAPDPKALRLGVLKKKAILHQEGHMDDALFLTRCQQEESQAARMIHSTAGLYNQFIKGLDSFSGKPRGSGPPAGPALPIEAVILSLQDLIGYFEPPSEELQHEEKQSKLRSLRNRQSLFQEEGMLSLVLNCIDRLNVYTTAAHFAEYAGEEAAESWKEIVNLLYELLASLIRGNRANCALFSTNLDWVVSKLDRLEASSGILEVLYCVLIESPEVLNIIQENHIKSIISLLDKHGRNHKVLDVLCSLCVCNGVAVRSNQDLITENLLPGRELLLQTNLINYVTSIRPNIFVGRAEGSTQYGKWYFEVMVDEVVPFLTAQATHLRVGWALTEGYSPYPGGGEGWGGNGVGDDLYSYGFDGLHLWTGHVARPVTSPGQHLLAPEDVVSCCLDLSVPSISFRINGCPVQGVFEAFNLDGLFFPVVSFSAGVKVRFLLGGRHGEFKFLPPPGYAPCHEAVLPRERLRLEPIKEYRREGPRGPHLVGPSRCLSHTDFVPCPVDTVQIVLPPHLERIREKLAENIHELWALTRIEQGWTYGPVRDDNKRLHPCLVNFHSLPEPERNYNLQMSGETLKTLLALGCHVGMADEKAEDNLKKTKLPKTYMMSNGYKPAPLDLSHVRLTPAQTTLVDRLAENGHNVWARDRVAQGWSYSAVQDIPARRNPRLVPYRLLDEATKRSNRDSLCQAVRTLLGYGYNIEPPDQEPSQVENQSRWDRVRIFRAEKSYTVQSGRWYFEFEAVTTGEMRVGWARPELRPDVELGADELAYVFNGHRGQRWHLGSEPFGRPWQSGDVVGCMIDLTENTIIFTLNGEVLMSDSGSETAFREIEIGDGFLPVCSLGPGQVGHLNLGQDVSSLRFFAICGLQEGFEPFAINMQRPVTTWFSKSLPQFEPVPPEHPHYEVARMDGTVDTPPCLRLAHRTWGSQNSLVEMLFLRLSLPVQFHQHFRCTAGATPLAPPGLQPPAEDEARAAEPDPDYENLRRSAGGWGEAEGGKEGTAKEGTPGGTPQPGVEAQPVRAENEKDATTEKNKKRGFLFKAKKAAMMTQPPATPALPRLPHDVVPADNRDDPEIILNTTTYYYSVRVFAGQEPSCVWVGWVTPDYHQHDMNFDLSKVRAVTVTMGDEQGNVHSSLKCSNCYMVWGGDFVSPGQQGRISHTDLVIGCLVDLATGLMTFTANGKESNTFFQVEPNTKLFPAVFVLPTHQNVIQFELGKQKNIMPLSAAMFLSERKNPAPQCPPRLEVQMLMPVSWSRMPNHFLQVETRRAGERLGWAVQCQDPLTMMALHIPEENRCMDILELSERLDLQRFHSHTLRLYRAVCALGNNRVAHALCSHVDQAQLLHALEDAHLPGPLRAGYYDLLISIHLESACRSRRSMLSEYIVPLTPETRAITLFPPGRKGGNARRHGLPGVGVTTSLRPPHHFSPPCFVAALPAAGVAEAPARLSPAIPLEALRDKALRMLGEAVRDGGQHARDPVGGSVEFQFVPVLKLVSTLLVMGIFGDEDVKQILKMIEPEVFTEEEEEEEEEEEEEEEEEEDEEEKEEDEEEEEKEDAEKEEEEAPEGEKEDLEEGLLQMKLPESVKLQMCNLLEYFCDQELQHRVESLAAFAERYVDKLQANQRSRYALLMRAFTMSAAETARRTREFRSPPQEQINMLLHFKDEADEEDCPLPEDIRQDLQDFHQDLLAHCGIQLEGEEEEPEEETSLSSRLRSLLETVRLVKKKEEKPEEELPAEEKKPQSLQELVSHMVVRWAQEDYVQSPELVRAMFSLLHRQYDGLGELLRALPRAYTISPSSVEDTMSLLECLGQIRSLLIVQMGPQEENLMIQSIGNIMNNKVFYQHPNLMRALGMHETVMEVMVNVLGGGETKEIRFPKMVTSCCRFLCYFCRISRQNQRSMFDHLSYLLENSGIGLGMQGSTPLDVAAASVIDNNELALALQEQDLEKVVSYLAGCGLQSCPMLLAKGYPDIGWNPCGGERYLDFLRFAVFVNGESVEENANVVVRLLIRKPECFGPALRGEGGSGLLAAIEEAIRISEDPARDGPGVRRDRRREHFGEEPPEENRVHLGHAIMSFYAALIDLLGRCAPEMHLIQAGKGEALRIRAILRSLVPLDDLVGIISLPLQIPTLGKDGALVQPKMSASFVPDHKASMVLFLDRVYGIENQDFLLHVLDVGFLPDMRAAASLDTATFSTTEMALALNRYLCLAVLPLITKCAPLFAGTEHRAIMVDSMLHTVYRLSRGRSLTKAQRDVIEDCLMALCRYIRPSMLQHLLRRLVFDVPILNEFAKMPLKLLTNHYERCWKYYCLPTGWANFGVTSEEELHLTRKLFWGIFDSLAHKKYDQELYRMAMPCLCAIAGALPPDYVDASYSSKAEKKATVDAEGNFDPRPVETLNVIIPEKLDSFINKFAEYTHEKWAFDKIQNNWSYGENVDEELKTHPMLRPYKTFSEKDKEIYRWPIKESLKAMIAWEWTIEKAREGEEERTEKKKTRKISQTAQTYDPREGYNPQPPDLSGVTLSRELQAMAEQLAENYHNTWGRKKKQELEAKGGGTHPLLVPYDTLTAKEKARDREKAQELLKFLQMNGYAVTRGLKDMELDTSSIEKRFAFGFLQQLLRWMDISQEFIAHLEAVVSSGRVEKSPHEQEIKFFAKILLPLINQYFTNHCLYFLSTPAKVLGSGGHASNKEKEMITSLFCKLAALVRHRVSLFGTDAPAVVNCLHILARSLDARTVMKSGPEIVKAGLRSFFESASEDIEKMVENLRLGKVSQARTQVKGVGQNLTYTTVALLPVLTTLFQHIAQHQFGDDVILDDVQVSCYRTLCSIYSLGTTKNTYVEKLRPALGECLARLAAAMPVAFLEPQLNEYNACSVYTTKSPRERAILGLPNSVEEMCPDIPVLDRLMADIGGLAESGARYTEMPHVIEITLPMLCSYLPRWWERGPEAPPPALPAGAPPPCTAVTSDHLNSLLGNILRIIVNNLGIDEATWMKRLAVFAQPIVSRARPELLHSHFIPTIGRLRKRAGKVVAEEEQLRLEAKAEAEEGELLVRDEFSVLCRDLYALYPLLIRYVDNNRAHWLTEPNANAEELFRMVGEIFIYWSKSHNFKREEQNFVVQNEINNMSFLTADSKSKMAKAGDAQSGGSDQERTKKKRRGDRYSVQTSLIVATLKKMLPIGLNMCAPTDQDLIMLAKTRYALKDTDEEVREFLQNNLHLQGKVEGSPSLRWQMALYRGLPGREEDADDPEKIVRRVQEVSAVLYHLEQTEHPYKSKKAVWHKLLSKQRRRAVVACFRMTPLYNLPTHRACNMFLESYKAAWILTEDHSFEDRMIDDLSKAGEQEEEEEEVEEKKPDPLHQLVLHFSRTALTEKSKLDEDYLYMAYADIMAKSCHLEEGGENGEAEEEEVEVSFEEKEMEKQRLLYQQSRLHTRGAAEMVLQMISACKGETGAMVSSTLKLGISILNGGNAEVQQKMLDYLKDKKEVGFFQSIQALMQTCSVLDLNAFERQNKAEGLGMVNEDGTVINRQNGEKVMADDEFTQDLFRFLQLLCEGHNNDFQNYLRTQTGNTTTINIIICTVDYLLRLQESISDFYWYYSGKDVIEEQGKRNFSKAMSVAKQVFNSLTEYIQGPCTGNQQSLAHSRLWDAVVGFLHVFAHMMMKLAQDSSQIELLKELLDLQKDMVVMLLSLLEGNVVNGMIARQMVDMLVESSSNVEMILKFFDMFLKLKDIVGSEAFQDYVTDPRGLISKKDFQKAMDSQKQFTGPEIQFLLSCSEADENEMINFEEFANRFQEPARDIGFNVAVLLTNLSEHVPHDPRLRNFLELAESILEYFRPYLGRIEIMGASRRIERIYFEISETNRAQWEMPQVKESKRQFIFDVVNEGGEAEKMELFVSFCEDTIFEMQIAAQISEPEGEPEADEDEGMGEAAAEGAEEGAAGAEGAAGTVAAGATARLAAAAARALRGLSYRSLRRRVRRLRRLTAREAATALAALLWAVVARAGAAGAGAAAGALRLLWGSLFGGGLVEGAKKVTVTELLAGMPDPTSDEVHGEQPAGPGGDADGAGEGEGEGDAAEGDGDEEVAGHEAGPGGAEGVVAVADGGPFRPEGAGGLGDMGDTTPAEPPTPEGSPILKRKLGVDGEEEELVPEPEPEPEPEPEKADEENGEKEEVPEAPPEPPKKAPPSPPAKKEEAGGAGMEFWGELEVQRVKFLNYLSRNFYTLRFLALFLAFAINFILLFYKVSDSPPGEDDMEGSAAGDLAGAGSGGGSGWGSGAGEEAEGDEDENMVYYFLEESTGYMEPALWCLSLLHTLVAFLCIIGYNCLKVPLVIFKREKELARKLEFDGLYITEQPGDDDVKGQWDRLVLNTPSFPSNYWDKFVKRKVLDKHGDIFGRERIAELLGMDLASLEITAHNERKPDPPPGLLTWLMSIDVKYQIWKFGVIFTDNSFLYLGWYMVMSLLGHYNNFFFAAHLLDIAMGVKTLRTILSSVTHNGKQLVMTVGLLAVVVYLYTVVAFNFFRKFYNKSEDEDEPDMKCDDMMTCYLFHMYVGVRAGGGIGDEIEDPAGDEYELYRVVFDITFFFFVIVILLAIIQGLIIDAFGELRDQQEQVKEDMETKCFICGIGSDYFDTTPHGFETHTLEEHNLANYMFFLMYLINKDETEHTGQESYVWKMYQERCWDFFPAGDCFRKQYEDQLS

Substance: GDWLPHLKL (MCa1-9, C3W variant) [MCaUF1-9(W3)]
- cell penetration (CPP efficiency) (F98 rat glioma cell line): ones of the best performing CPPs
- penetration compared with 3 μM Tat (F98 cell line; 1 μM peptide): proved better CPP than Tat at 3 μM

Substance: GDaLPHLKL (GD[Abu]LPHLKL) [MCaUF1-9]
- dose-dependent cell penetration (CHO cells [1]; 2 hrs): penetrates better at low concentration
- cell penetration (CPP efficiency) (F98 rat glioma cell line): ones of the best performing CPPs
- penetration compared with 3 μM Tat (F98 cell line; 3 μM peptide): proved better CPP than Tat at 3 μM

Substance: GDaLPHLKLC (GD[Abu]LPHLKLC) [MCaUF1-9-C]
- cell penetration (fluorescence accumulation within cells) (CHO cells [1]): showed CPP properties; also recorded: better CPP than MCaUF1-15-C

Substance: GDaLPHLKLaKENKDC (GD[Abu]LPHLKL[Abu]KENKDC) [MCaUF1-15-C]
- cell penetration (fluorescence accumulation within cells) (CHO cells [1]): showed CPP properties

Substance: GDaWPHLKL (GD[Abu]WPHLKL) [MCaUF1-9(Abu3-W4)]
- penetration compared with 3 μM Tat (F98 cell line; 1 μM peptide): proved better CPP than Tat at 3 μM

Substance: GTNIEKRaRC (GTNIEKR[Abu]RC) [MCaUF25-33-C]
- cell penetration (fluorescence accumulation within cells) (CHO cells [1]): have also CPP properties

Substance: KDaaSKKaKRRG (KD[Abu][Abu]SKK[Abu]KRRG) [MCaUF14-25]
- dose-dependent cell penetration (CHO cells [1]; 2 hrs): yields the greatest cell entry of the dye

Substance: KDalKHLQR (KD[Abu]IKHLQR) [HadUF3-11]
- cell penetration (CPP efficiency) (F98 rat glioma cell line): ones of the best performing CPPs
- cell penetration (CPP efficiency) (F98 rat glioma cell line; listed as HadUF3-9(Abu5)): perform better as CPP than the maurocalcine derived peptide MCaUF1-9(Abu3)

Substance: MCaUF1-9-C-Cy5: MCaUF1-9-C (SEQ ID NO: 136, GDaLPHLKLC) labeled with Cy5 (GD[Abu]LPHLKLC(Cy5″))
- concentration with detectable cell penetration (CHO cells [1]; 2 hrs): 10 nM
- dose-dependent cell penetration (CHO cells [1]; 2 hrs): best performing peptide for cell penetration at low concentrations
- Cy5-positive pixels rhodamine-positive (colocalization with the plasma membrane indicator) (CHO cells [2]): higher values of colocalization
- intracellular / plasma membrane distribution (CHO cells [2]; confocal microscopy): dots appear at higher concentrations within one pole of the cell

Substance: MCaUF1-15-C-Cy5: MCaUF1-15-C (SEQ ID NO: 135) labeled with Cy5 (GD[Abu]LPHLKL[Abu]KENKDC(Cy5″))
- inhibition of cell penetration by amiloride (CHO cells [3]): 39%
- amiloride-sensitivity of cell penetration (CHO cells [3]): higher amiloride-sensitivity than MCaUF1-33-C-Cy5

Substance: MCaUF1-20-C-Cy5: MCaUF1-20-C (SEQ ID NO: 134) labeled with Cy5 (GD[Abu]LPHLKL[Abu]KENKD[Abu][Abu]SKKC(Cy5″))
- dose-dependent cell penetration (CHO cells [1]; 2 hrs): performing as well as MCaUF8-33-C-Cy5
- Cy5-positive pixels rhodamine-positive (colocalization with the plasma membrane indicator) (CHO cells [2]): 30.4±1.4%

Substance: MCaUF1-33-C-Cy5: MCaUF1-33-C (SEQ ID NO: 140) labeled with Cy5 on the C-terminal Cys (GD[Abu]LPHLKL[Abu]KENKD[Abu][Abu]SKK[Abu]KRRGTNIEKR[Abu]RC(Cy5))
- cell penetration (fluorescence accumulation within cells) (CHO cells [1]): penetrated efficiently within CHO cells
- dose-dependent cell penetration (CHO cells [1]; 2 hrs): least-performing cell penetrating peptide
- Cy5-positive pixels rhodamine-positive (colocalization with the plasma membrane indicator) (CHO cells [2]): 10.1±2.6%
- degree of accumulated cell fluorescence (CHO cells [2]; confocal microscopy): penetrate the least
- inhibition of cell penetration by amiloride (CHO cells [3]): 19.6%

Substance: MCaUF1-33: unfolded full-length MCa, six Cys replaced by 2-aminobutyric acid (Abu) (GD[Abu]LPHLKL[Abu]KENKD[Abu][Abu]SKK[Abu]KRRGTNIEKR[Abu]R; not fully specified (residue 33))
- amiloride sensitivity of cell entry (cells): largely sensitive to amiloride
- pharmacological action on / interaction with RyR1 [4]: unable to interact with MCa's target, the ryanodine receptor RyR1

Substance: MCaUF8-33-C-Cy5: MCaUF8-33-C (SEQ ID NO: 141) labeled with Cy5 (KL[Abu]KENKD[Abu][Abu]SKK[Abu]KRRGTNIEKR[Abu]RC(Cy5″))
- dose-dependent cell penetration (CHO cells [1]; 2 hrs): did not show any sign of saturation; also recorded: no saturation of cell entry
- intracellular / plasma membrane distribution (CHO cells [2]; confocal microscopy): dots appear at higher concentrations within one pole of the cell

Substance: MCaUF11-33-C-Cy5: MCaUF11-33-C (SEQ ID NO: 142) labeled with Cy5 (KENKD[Abu][Abu]SKK[Abu]KRRGTNIEKR[Abu]RC(Cy5″))
- Cy5-positive pixels rhodamine-positive (colocalization with the plasma membrane indicator) (CHO cells [2]): 21.3±2.6%
- intracellular / plasma membrane distribution (CHO cells [2]; confocal microscopy): dots appear at higher concentrations within one pole of the cell
- amiloride-sensitivity of cell penetration (CHO cells [3]): higher amiloride-sensitivity than MCaUF1-33-C-Cy5

Substance: MCaUF14-25-C-Cy5: MCaUF14-25-C (SEQ ID NO: 139) labeled with Cy5 (KD[Abu][Abu]SKK[Abu]KRRGC(Cy5″))
- dose-dependent cell penetration (CHO cells [1]; 2 hrs): yields the greatest fluorescence accumulation
- intracellular / plasma membrane distribution (CHO cells [2]; confocal microscopy): sub-plasma membrane rim localization was more evident
- amiloride-sensitivity of cell penetration (CHO cells [3]): higher amiloride-sensitivity than MCaUF1-33-C-Cy5

Substance: MCaUF14-33-C-Cy5: MCaUF14-33-C (SEQ ID NO: 143) labeled with Cy5 (KD[Abu][Abu]SKK[Abu]KRRGTNIEKR[Abu]RC(Cy5″))
- Rhodamine-positive staining also Cy5-positive (pixels) (CHO cells [2]): best performing
- Cy5-positive pixels rhodamine-positive (colocalization with the plasma membrane indicator) (CHO cells [2]): higher values of colocalization

Substance: MCaUF18-33-C-Cy5: MCaUF18-33-C (SEQ ID NO: 137) labeled with Cy5 (SKK[Abu]KRRGTNIEKR[Abu]RC(Cy5″))
- dose-dependent cell penetration (CHO cells [1]; 2 hrs): performed drastically better than the other truncated peptides
- Rhodamine-positive staining also Cy5-positive (pixels) (CHO cells [2]): best performing
- amiloride-sensitivity of cell penetration (CHO cells [3]): enhance rather than inhibit the cell penetration

Substance: MCaUF20-33-C-Cy5: MCaUF20-33-C (SEQ ID NO: 144) labeled with Cy5 (K[Abu]KRRGTNIEKR[Abu]RC(Cy5″))
- Rhodamine-positive staining also Cy5-positive (pixels) (CHO cells [2]): best performing
- intracellular / plasma membrane distribution (CHO cells [2]; confocal microscopy): Diffuse membrane labeling
- amiloride-sensitivity of cell penetration (CHO cells [3]): enhance rather than inhibit the cell penetration

Substance: MCaUF22-33-C-Cy5: MCaUF22-33-C (SEQ ID NO: 145) labeled with Cy5 (KRRGTNIEKR[Abu]RC(Cy5″))
- Rhodamine-positive staining also Cy5-positive (pixels) (CHO cells [2]): best performing
- intracellular / plasma membrane distribution (CHO cells [2]; confocal microscopy): direct plasma membrane labeling

Substance: MCaUF25-33-C-Cy5: MCaUF25-33-C (SEQ ID NO: 146) labeled with Cy5 (GTNIEKR[Abu]RC(Cy5″))
- intracellular / plasma membrane distribution (CHO cells [2]; confocal microscopy): dots appear at higher concentrations within one pole of the cell; also recorded: Diffuse membrane labeling
- amiloride-sensitivity of cell penetration (CHO cells [3]): higher amiloride-sensitivity than MCaUF1-33-C-Cy5

Substance: SEKDalKHLQR (SEKD[Abu]IKHLQR) [HadUF1-11]
- cell penetration (CPP efficiency) (F98 rat glioma cell line): ones of the best performing CPPs
- cell penetration (CPP efficiency) (F98 rat glioma cell line; listed as HadUF1-11(Abu5)): perform better as CPP than the maurocalcine derived peptide MCaUF1-9(Abu3)
- penetration compared with 3 μM Tat (F98 cell line; 1 μM peptide): proved better CPP than Tat at 3 μM

Substance: SKKaKRRGTNIEKRaR (SKK[Abu]KRRGTNIEKR[Abu]R) [MCaUF18-33]
- amiloride-sensitivity of cell penetration (CHO cells [3]): macropinocytosis entry-independent

Substance: aLPHLKL ([Abu]LPHLKL) [MCaUF3-9]
- cell penetration (CPP efficiency) (F98 rat glioma cell line): ones of the best performing CPPs
- cell penetration (CPP efficiency) (F98 rat glioma cell line; listed as MCaUF3-9(Abu3)): efficient CPP
- penetration compared with 3 μM Tat (F98 cell line; 1 μM peptide): proved better CPP than Tat at 3 μM
